Where “and” joins values, the source holds several entries; their conditions need not be identical. Equal values may be shown once. Read-outs that look alike come from different tables or passages of the source.
Key:
Rad51-BRC repeat binding = target: T1, Rad51-BRC repeat binding (Homo sapiens, UniProt Q06609); experiment: SPR (Biacore) competitive binding assay, solution competition format
T1 sequence (Q06609 1-339): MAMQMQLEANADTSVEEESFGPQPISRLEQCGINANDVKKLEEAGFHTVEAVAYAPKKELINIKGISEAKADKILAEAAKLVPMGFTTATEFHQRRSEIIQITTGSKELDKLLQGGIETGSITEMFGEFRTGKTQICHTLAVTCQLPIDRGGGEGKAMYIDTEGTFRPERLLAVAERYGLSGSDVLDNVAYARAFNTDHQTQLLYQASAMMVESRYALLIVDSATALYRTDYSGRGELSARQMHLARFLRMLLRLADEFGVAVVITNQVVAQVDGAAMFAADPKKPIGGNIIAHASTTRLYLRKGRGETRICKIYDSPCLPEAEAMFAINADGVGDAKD
Protocol: Therefore, the 5-position of indole ring may provide a potential site for further modification. The inventors also noticed that there is a chiral center in the IBR compounds as marked by an asterisk in FIG. 1B. Initially, the inventors separated these two enantiomers by chiral HPLC (Regis Whelk-O1, Hexane:isopropanol=75:25) as shown in chromatogram of FIG. 1C and determined the absolute configuration by X-ray crystallography. […] Here, the inhibition of Rad51-BRC repeat binding was analyzed by SPR in a solution competition format.
Successful entities are then analyzed with Biacore's surface plasmon resonance (SPR) technique in a solution competition format to determine their median inhibitory concentration on Rad51. Briefly, the assays are performed on a Biacore 3000 (Biacore Inc.) using a Sensor chip NTA (Biacore Inc.) for capturing His-tagged Rad51 protein. The concentration of BRC protein is kept constant. Compounds are dissolved in DMSO at 20 mM and serially diluted in each BRC test sample. The assays are performed at 25° C. in running buffer (10 mM HEPES, 150 mM NaCl, 0.1% DMSO). Relative BRC-Rad51 binding percentage in the presence of inhibitors is calculated. The experiments are carried out in triplicate and averaged. The best-fit competitive binding curve is drawn and median inhibitory concentration of each candidate compound is obtained. The results of these assays are thought to help to establish a quantitative structure-activity relationship, which in turn guides further optimization of the positive hits.
To further determine the binding affinity of IBR2 to Rad51, the inventors then used a Biacore competitive binding assay.

BRC-RAD51 interaction = target: T2, BRC-RAD51 interaction (Homo sapiens, UniProt Q06609); experiment: inducible reverse yeast two-hybrid screening; format: cell-based
T2 construct: expressed in transfected cells; host or cells: yeast strain harboring a TetOp-driven URA3 gene
T2 sequence (Q06609 1-339): T1 sequence (Q06609 1-339)
Source text: Briefly, two fusion proteins, the TetR-BRC fusion protein (TetR/NCB, constitutively expressed) and the Rad51-activation domain fusion protein (AD/Rad51, expressed under the GAL1 promoter), worked together as a transcriptional activator in a yeast strain harboring a TetOp-driven URA3 gene. The interaction between these two fusion proteins induced the expression of URA3 gene, and the toxic metabolite from 5-FOA in the medium caused cell death. If the small molecules tested inhibited TetR/BRC/AD/Rad51 interaction, URA3 expression was abolished and cells are allowed to grow.
The reverse yeast two-hybrid system is used to perform the second round screening of the modified small compounds. TetR/NCB fission protein which contains BRC1-4 repeats (TetR/NCB) are expressed constitutively; the expression of a RAD51-GAL4 Activation Domain fusion protein (AD/RAD51) is rendered galactose-inducible under GAL1 promoter. Yeast is grown on a galactose medium containing 5-FOA. The assay is performed on 96-well plates. Small molecule compounds are added into the medium at the concentration of 10 mM in the total volume of 100 ml. The compounds that can disrupt the BRC-RAD51 interaction are identified by the viability of the yeast.

[1] = tested on: Rad51 foci formation in MCF-7 breast cancer cells; experiment: IR-induced Rad51 foci formation assay; format: cell-based
Protocol: These compounds were then tested for their effects on the IR-induced Rad51 foci formation in MCF-7 breast cancer cells. […] These compounds were then tested for their effects on the IR-induced Rad51 foci formation in MCF-7 breast cancer cells as also described in WO 2006/044933.

Rad51 [2] = target: T3, Rad51 (Homo sapiens, UniProt Q06609); experiment: SPR compound pretreatment, immobilized Rad51; format: binding
T3 sequence (Q06609 1-339): T1 sequence (Q06609 1-339)
Protocol: (§1) To determine whether it was Rad51 or BRC repeat that actually served as a direct target of these compounds, surface plasmon resonance (SPR) was employed to detect the inhibition of protein binding by compound pretreatment. In principle, one of the proteins was attached to the sensor chip, and IBR compounds were allowed to pass through the surface; then, the binding of the second protein was measured. If IBR compounds bind the immobilized protein, the binding of the second protein will be reduced; otherwise, the binding capacity of second protein will be mostly retained.

BRC repeat = experiment: SPR compound pretreatment, immobilized BRC repeat; format: binding
Protocol: as §1

Rad51 [3] = target: T3, Rad51; experiment: gel filtration profile of Rad51 (multimerization); format: biochemical; details: data not shown
Protocol: To test this possibility, the inventors then compared the gel filtration profile of Rad51 incubated in the presence or absence of IBR2. […] The inventors then aligned the 3D structure of IBR2 with the BRC4 hairpin structure and the Rad51 oligomerization motif together. […] Therefore, one possibility of the action mechanism is that IBR compounds, by mimicking Phe1524 of BRCA2, may block the entrance of the hydrophobic binding pocket on Rad51 core domain, and inhibit BRCA2/Rad51 interaction as well as Rad51 multimerization.

[4] = tested on: Ba/F3 cells expressing T315I BCR-ABL; experiment: XTT growth inhibition; format: cell-based, murine; details: Mus musculus, BaF3, 48 hr
Protocol: (§2) In CML cells, the constitutively active BCR-ABL is responsible for maintaining high levels of Rad51 activity by direct activation through phosphorylation and transcriptional up-regulation mediated by STAT5. It is therefore contemplated that inhibition of Rad51 activity by IBR2 may have detrimental effects on CML. To test this possibility, murine hematopoietic Ba/F3 progenitor cells expressing different versions of BCR-ABL (e.g., wild-type, T315I, and E255K) mutants were treated with IBR2 at indicated concentrations for 48 hr, and growth inhibition was then determined by XTT (sodium 3′-[1-(phenylaminocarbonyl)-3,4-tetrazolium]-bis(4-methoxy-6-nitro) benzene sulfonate) assay. […] To further test whether the growth inhibition was resulted from cell death or cytostatic effect of IBR2 treatment, the inventors then determined the percentages of annexin V positive cells, which is indicative of cell death, after IBR2 treatment.

[5] = tested on: BCR-ABL-expressing Ba/F3 cells; experiment: XTT growth inhibition; format: cell-based, murine; details: 48 hr
Protocol: as §2
To examine the consequence of the BCR-ABL/Stat5/Rad51 regulatory pathway, the protein expression as well as their phosphorylation states in IBR2-treated cells were analyzed by Western blot. […] On the contrary, there was little effect on Ba/F3 parental cells. The decrease of Rad51 expression in IBR2-treated cells is consistent with the inventors′ earlier observation that IBR2 induces Rad51 degradation mediated by proteasome in breast cancer cells. […]

Ba/F3 parental cells [6] = experiment: XTT growth inhibition; format: cell-based, murine; details: 48 hr
[7] = tested on: Ba/F3 cells expressing WT, T315I or E255K BCR-ABL; experiment: annexin V positive cells (apoptosis); format: cell-based, murine; details: dose dependent
Protocol: as §2

[8] = tested on: Ba/F3 cells carrying BCR-ABL expression; experiment: Western blot of BCR-ABL/Stat5/Rad51 pathway; format: cell-based, murine
Protocol: To examine the consequence of the BCR-ABL/Stat5/Rad51 regulatory pathway, the protein expression as well as their phosphorylation states in IBR2-treated cells were analyzed by Western blot. […] On the contrary, there was little effect on Ba/F3 parental cells. The decrease of Rad51 expression in IBR2-treated cells is consistent with the inventors′ earlier observation that IBR2 induces Rad51 degradation mediated by proteasome in breast cancer cells. Furthermore, the inventors performed the same set of experiments using compound B6, which has no inhibitory activity to Rad51 in vitro.

Ba/F3 parental cells [9] = experiment: Western blot of protein expression; format: cell-based, murine; details: IBR2-treated
Protocol: To examine the consequence of the BCR-ABL/Stat5/Rad51 regulatory pathway, the protein expression as well as their phosphorylation states in IBR2-treated cells were analyzed by Western blot.

Ba/F3-p210 cells [10] = experiment: percentage of apoptotic cells; format: cell-based, murine; details: 48 hours
Source text: Since Rad51 and BCR-ABL are in the same pathway essential for cell survival, it was contemplated that simultaneous treatment of Ba/F3-p210 cells with both inhibitors may synergistically enhance the cell death. […] Exemplary results are depicted in FIGS. 4A and 4B.

Ba/F3-p210 cells [11] = experiment: median-effect and Combination Index analysis (Chou's method); format: cell-based, murine; details: Mus musculus, read-out: median-effect dose (Dm)
Ba/F3-T315I cells [12] = experiment: induction of cell death; format: cell-based, murine; details: 20 μM IBR2 alone
Ba/F3-T315I cells [13] = experiment: Western blot of protein expression; format: cell-based, murine; details: 20 μM IBR2 alone, within 12-24 hours
Source text: Direct targeting to Rad51 may provide a potential strategy to overcome this type of resistance. […] Next, the inventors examined the effects of IBR2 treatment on the protein expression levels in these cells by western blot.

Ba/F3-T315I cells [14] = experiment: survival of NOD/SCID mice injected with Ba/F3-T315I cells; format: in vivo; details: 100 mg/kg, 30 days, vs vehicle, p<0.01
[15] = tested on: human blast crisis CML K562 cells; experiment: percentage of apoptotic cells; format: cell-based
Ba/F3-P210 = experiment: cell growth (viable cell count / XTT); format: cell-based; details: 0 to 20 μM, up to three days, dose-dependent
Protocol: (§3) The inventors also examined the effect of IBR2 on growth of Ba/F3 expressing wild type Bcr-Abl-P210 and Bcr-Abl mutant isoform T315I. […] FIG. 9 illustrates the effect of IBR2 on parental Ba/F3 cells and Ba/F3 cells expressing WT Bcr-Abl or Bcr-Abl mutant isoform T315I cells. […] After 72 hours of incubation, proliferation was measured by XTT-based method. Absorbance was measured at 490 nm in a microplate reader. Bars are SD, n=2.

Ba/F3-T315I = experiment: cell growth (viable cell count / XTT); format: cell-based; details: 0 to 20 μM, up to three days, dose-dependent
Protocol: as §3

Ba/F3-p210 cells [16] = experiment: Western blot of protein expression; format: cell-based, murine; details: 0.1-0.6 μM imatinib, absence of IBR2
Source text: The inventors then examined the effects of co-treatment on Rad51, BCR-ABL, and Stat5 protein expression levels as described above.

K562 cells = experiment: Western blot of protein expression; format: cell-based, human; details: imatinib, absence of IBR2
Source text: The inventors then examined the protein expression levels of Rad51, BCR-ABL and Stat5 by western blot analysis.

[17] = SPR, solution competition format, read-out: median inhibition concentration

O=S(=O)(Cc1ccccc1)N1C=Cc2ccccc2C1c1c[nH]c2ccccc12 (racemic) [IBR2]
IC50 (Rad51-BRC repeat binding; [17]): ~115 nM

O=S(=O)(Cc1ccccc1)N1C=Cc2ccccc2C1c1c[nH]c2ccccc12 (centres unmarked) [IBR2]
yeast two-hybrid screening (BRC-RAD51 interaction): positive | IR-induced Rad51 foci formation [1]: dramatically reduced Rad51 foci formation | IR-induced Rad51 foci formation ([1]; listed as NS7798): positive | IC50 (Rad51-BRC repeat binding; Biacore competitive binding assay, read-out: IC50): 110 nM | binding of BRC repeat to immobilized Rad51 after compound pretreatment (Rad51 [2]): lost the ability to bind BRC repeat | binding of immobilized BRC repeat to Rad51 after compound pretreatment (BRC repeat): did not affect | Rad51 elution profile (multimerization) (Rad51 [3]): major peak consistent with the molecular weight of a monomer | IC50 [4]: 12000 nM | proliferation [5]: inhibited the proliferation | proliferation (Ba/F3 parental cells [6]): much less | apoptosis (annexin V positive cells) [7]: induced apoptosis | Rad51, BCR-ABL and phosphorylated Stat5 (p-Stat5) levels [8]: dose-dependent decreases | c-Abl, p-c-Abl and total Stat5 protein [8]: unchanged | protein expression and phosphorylation (Ba/F3 parental cells [9]): little effect | apoptotic cells (Ba/F3-p210 cells [10]; IBR2 5 μM): about 1.7% | apoptotic cells (Ba/F3-p210 cells [10]; IBR2 10 μM): ~4.1% | apoptotic cells (Ba/F3-p210 cells [10]; IBR2 15 μM alone): < 10% and ~12.6% | apoptotic cells (Ba/F3-p210 cells [10]; IBR2 20 μM): ~57.1% | EC50 (Ba/F3-p210 cells [11]): 13900 nM | cell death (Ba/F3-T315I cells [12]): over 80% | protein expression levels of Rad51, BCR-ABL, p-BCR-ABL and p-Stat5 (Ba/F3-T315I cells [13]): dramatically reduced | survival of mice (Ba/F3-T315I cells [14]): significantly prolonged survivals | apoptotic percentage ([15]; IBR2 15 μM alone): ~10% | cell growth (Ba/F3-P210): significantly inhibited the growth | cell growth (Ba/F3-T315I): significantly inhibited the growth

O=S(=O)(Cc1ccccc1)N1C=Cc2ccccc2[C@@H]1c1c[nH]c2ccccc12 [R-IBR2]
IC50 (Rad51-BRC repeat binding; [17]): ~1 nM

Cc1ccc(NC(=O)c2ccc(CN3CCN(C)CC3)cc2)cc1Nc1nccc(-c2cccnc2)n1 [imatinib]
apoptotic cells (Ba/F3-p210 cells [10]; imatinib 0.1 μM): about 6.8% | apoptotic cells (Ba/F3-p210 cells [10]; imatinib 0.2 μM): ~7.6% and ~10% | apoptotic cells (Ba/F3-p210 cells [10]; imatinib 0.4 μM): ~23.1% | apoptotic cells (Ba/F3-p210 cells [10]; imatinib 0.6 μM): ~39.3% | Rad51, BCR-ABL, p-BCR-ABL and p-Stat5 levels (Ba/F3-p210 cells [16]): modestly decreased | Stat5 protein level (Ba/F3-p210 cells [16]): did not influence | apoptotic percentage ([15]; imatinib 0.1 μM): about 9.7% | apoptotic percentage ([15]; imatinib 0.2 μM): ~11.8% | apoptotic percentage ([15]; imatinib 0.6 μM): ~28.1% | Rad51, BCR-ABL, p-BCR-ABL, p-Stat5 levels (K562 cells): decreased in a dose dependent manner | Stat5 protein level (K562 cells): did not affect

Reference: patent publication US9012455B2, “Pharmaceutical compositions containing an indoyl isoquinoline containing compound and uses thereof” (The Regents of the University of California, priority 2006, dated 2015)
